Experimental data from patent publication US10610535B2 (The Regents of the University of California, priority 2005, dated 2020).

Legend:
[1] = test system: SJL mice with EAE; experiment: PLP 139-151 induced active EAE in SJL mice, relapses; type: in vivo
[2] = test system: PLP 139-151 stimulated splenocytes; experiment: Splenic immune responses (proliferation, cytokines) in SJL mice with EAE; type: in vivo; conditions: day 52 after disease induction, vs vehicle
Experimental: (§1) Spleens were harvested either after deep anesthesia prior to perfusion or after euthanasia. Splenocytes were stimulated with the indicated autoantigens at […], and proliferation assessed using standard H3 incorporation assays, as described. Supernatants were collected after 48 and 72 hours, and levels of TNF-i, IFN-γ, 11,6, and 1 L5 were determined by cytometric bead array (BD Biosciences), as described. EAE clinical disease severity was compared between treatment groups using the Friedman test; histopathological changes were assessed using 1×4 ANOVAs; uterine weights, proliferative responses and cytokine levels were compared between treatment groups using Student t-test, and time on rotorod was compared between treatment groups using ANOVA.

[3] = test system: MOG 35-55 stimulated splenocytes; experiment: Autoantigen specific cytokine production by splenocytes in C57BL/6 EAE (Example 6); type: in vivo, mice; conditions: vs vehicle
Experimental: as §1

[4] = test system: spinal cords of mice with EAE; experiment: Spinal cord histopathology and immunohistochemistry in EAE (Example 6); type: in vivo
Excerpt: Mice were deeply anesthetized with isoflurane and perfused transcardially with ice-cold 0.9% saline, followed by 10% formalin. Spinal cord columns were removed and post-fixed overnight in 10% formalin and cryoprotected with 20% sucrose solution in PBS. Spinal cords were removed from the column and cut in 3 parts (cervical, thoracic and lumbar) and embedded in gelatin/sucrose mix. Spinal cord regions in gelatin were further postfixed and stored in 20% sucrose. Free-floating sections (25 μm thick) were cut coronally with a sliding microtome and collected serially in PBS.
Serial sections were mounted on slides and stained with Hematoxylin & eosin (H&E) or Nissl. Consecutive sections were also examined by immunohistochemistry. Briefly, 25 μm free-floating sections were permeabilized in 0.3% Triton X-100 in PBS and blocked with 10% normal goat serum. White matter immunostaining was enhanced by treating sections with 95% ethanol/5% acetic acid for 15 minutes prior to permeabilization and blocking. To detect specific cell types and structures, sections were pre-incubated with primary antibodies in PBS solution containing 2% NGS for 2 hours at room temperature, then overnight at […]. The following primary antibodies were used: anti-133 tubulin and anti-neurofilament-NF200 (monoclonal, Chemicon; polyclonal Sigma Biochemical), anti-neuronal specific nuclear protein (NeuN), anti-CD4S (Chemicon), and anti-MW (Chemicon). The second antibody step was performed by labeling with antibodies conjugated to TRITC, FITC and Cy5 (Vector Labs and Chemicon). IgG-control experiments were performed for all primary antibodies, and no staining was observed under these conditions. To assess the number of cells, a nuclear stain 4′,6-Diamidino-2-phenylindole, DAPI (2 ng/ml; Molecular Probes) was added for 15 minutes prior to final washes after secondary antibody addition. The sections were mounted on slides, dried and coverslipped in fluoromount G (Fisher Scientific).
To quantify immunostaining results, sections from spinal cord levels T1-T5 were examined, six from each mouse, with n=3 mice per treatment group, for a total of 18 sections per treatment group. Images were captured under microscope (4×, 10× or 40×) using the DP70 Image software and a DP70 camera (both from Olympus). Identical tight intensity and exposure times were applied to all photographs from each experimental set. Images from the same areas of spinal cord were compared (TI-IS) and were acquired separately from delineated whole gray and white mailer regions. The middle region of the ventral horn was the focus for gray matter analysis, while the area lateral to the ventral horn was the focus for white matter analysis. Six gray matter and six white matter pictures were collected from the two sides of TI-IS sections (100 jim apart) from three animals in each treatment group. All images were converted to grayscale and then analyzed by density measurement with ImageJ vi 0.29 (the Windows version of NIH Image), downloaded from rsb.info.nih.gov/ij. A fixed threshold range of 0 to 160 was chosen to highlight the staining signals in normal spinal cord sections, and the total area within this range was measured, averaged, and compared.
Increase in total number of infiltrating cells after induction of EAE was measured by density measurements of DAPI nuclei in the whole white matter. Neuronal cells were quantified by counting the NeuN^+/β3-tubulin^+/DAPI^+ cells per mm2 in the whole gray matter. Both white and gray matter assessments occurred in the TI-IS spinal cord sections. Laser scanning confocal microscopic scans at 40× were performed on Mac 3^+/β3-tubulin^+ immunostained spinal cord sections corresponding to levels 11-15 ventral horn. […]

[5] = test system: C57BL/6 mice with EAE; experiment: Rotarod testing of motor performance during EAE; type: in vivo
Experimental: Motor behavior was tested up to two times per week for each mouse using a rotarod apparatus (Med Associates mc, St. Albans, Vt.). Briefly, animals were placed on a rotating horizontal cylinder for a maximum of 200 seconds. The amount of time the mouse remained walking on the cylinder, without falling, was recorded. Each mouse was tested on a speed of 3-30 rpm and given three trials for any given day. The three trials were averaged to report a single value for an individual mouse, and then averages were calculated for all animals within a given treatment group. The first two trial days, prior to immunization (day 0), served as practice trials.
EAE clinical disease severity was compared between treatment groups using the Friedman test; histopathological changes were assessed using 1×4 ANOVAs; uterine weights, proliferative responses and cytokine levels were compared between treatment groups using Student t-test, and time on rotorod was compared between treatment groups using ANOVA.

[6] = test system: uterus (positive control tissue) of ovariectomized C57BL/6 mice; experiment: Uterine weights to assess dosing (Example 6); type: in vivo
Experimental: Uterine weight was used as a positive control to assess dosing of estrogen agonists. Daily subcutaneous injections of vehicle, estradiol, PPT, or DPN, as well as a combination of ITT with DPN, were administered for ten days at indicated doses to ovariectomized mice. Following euthanasia, the uterus was extracted, then fat, connective tissue, and excess fluid removed in order to obtain the uterine weight, as described. EAE clinical disease severity was compared between treatment groups using the Friedman test; histopathological changes were assessed using 1×4 ANOVAs; uterine weights, proliferative responses and cytokine levels were compared between treatment groups using Student t-test, and time on rotorod was compared between treatment groups using ANOVA.

[7] = test system: C57BL/6 mice with EAE; experiment: Clinical severity of MOG 35-55 induced active EAE (Example 6); type: in vivo; conditions: vs vehicle
[8] = test system: spinal cords of mice with EAE; experiment: Spinal cord histopathology and immunohistochemistry in EAE (Example 5); type: in vivo; conditions: acute phase of EAE
Excerpt: Mice were deeply anesthetized with isoflurane and perfused transcardially with ice-cold 0.9% saline, followed by 10% formalin. Spinal cord columns were removed and postfixed overnight in 10% formalin and cryoprotected with 20% sucrose solution, in PBS. Spinal cords were removed from the column, cut in three parts (cervical, thoracic, and lumbar), and embedded in gelatin/sucrose mix. Spinal cord regions in gelatin were further postfixed and stored in 20% sucrose. Free-floating sections (25 μm thick) were cut coronally with a sliding microtome and collected serially in PBS. […]
To quantify immunostaining results, sections from spinal cord levels T1-T5 were examined, six from each mouse, with n=3 mice per treatment group, for a total of 18 sections per treatment group. […] All images were converted to grayscale and then analyzed by density measurement with ImageJ version 1.29 (the Windows version of NIH Image), downloaded from rsb.info.nih.gov/ij. A fixed threshold range of 0-160 was chosen to highlight the staining signals in normal spinal cord sections, and the total area within this range was measured, averaged, and compared.
Increase in total number of infiltrating cells after induction of EAE was measured by density measurements of DAPI+nuclei in the whole white matter. Neuronal cells were quantified by counting the NeuN+/β3-tubulin+/DAPI+ cells per square millimeter in the whole gray matter. […]

[9] = test system: post-partum patient with relapsing remitting multiple sclerosis; experiment: Case of post-partum relapsing remitting MS patient; type: in vivo, human
Experimental: A patient was diagnosed as having relapsing remitting multiple sclerosis. Following the delivery of their first child (now […]), the patient was treated only with Copaxone and relapsed at 6 weeks. Following the delivery of their second child (now […]), the patient was again treated with Copaxone alone and again relapsed, this time at 4.5 months. Following a subsequent pregnancy, the patient was treated with 8 mg estriol/day in an attempt to prevent their post partum relapses.
Following the birth of the patient's third child (now 6 months), the patient resumed treatment with Copaxone as before. However, on day 10 post-partum they began taking estriol 8 mg/daily in an oral dosage form. […] Since monthly brain MRIs with gadolinium to detect enhancing MS lesions are more sensitive for inflammatory disease activity than relapses, the patient underwent serial monthly MRIs at post partum months 4, 5, and 6.
The patient doubled the progesterone minipill for 2 weeks to stabilize the endometrium. Otherwise no adverse events have been reported.

[10] = early (day 19) and later (day 40) stages of EAE
[11] = day 19 and day 40, vs normal mice

N#CC(Cc1ccc(O)cc1)c1ccc(O)cc1 (centres unmarked) [DPN, Diarylpropionitrile]
Relapses (mice with relapse / mice) ([1]; DPN treated SJL mice, relapses between days 36 and 52, vehicle 10/13): 5/13 | Relapses (percent of mice) ([1]; DPN treated SJL mice, relapses between days 36 and 52, vehicle 77%): 33% | Incidence, day of onset, peak clinical scores ([1]; DPN vs vehicle, SJL mice): no difference | Cytokine (TNFα, IFNγ) production during the PLP 139-151 specific response [2]: No significant differences | Proliferation during the PLP 139-151 specific response [2]: No significant differences | Anti-inflammatory cytokine IL5 [3, 10]: not statistically different from vehicle treatment | Levels of proinflammatory cytokines (TNFα, IFNγ, and IL6) [3, 10]: not statistically different from vehicle treatment | IL10 production [3]: No differences | White matter cell density, myelin density, axonal numbers and NeuN+ cells ([4]; ERβ knock out mice with EAE, day 38-40): does not prevent white and gray matter pathology | MBP immunoreactivity in dorsal column (myelin density) [4, 11]: no significant decreases | Neurofilament stained axon numbers in white matter [4, 11]: no significant reduction in axon numbers | NeuN+ cell numbers in gray matter ([4]; early (day 19) and later (day 40) time points, vs healthy controls): fewer, but not significantly different from those in healthy controls | CD45 staining in white matter ([4]; early and later time points, vs vehicle treated EAE): did not have reduced CD45 staining | Inflammation, white matter cell density (DAPI+ cells) of thoracic cord ([4]; early stage of EAE (day 19), vs vehicle treated EAE): not significantly different from those in vehicle treated | Inflammation, white matter cell density (DAPI+ cells) of thoracic cord ([4]; later time point (day 40), vs vehicle): no different from that in vehicle treated | Mean time on rotarod (motor function) ([5]; ERβ KO mice with EAE, later phase of disease): no improvement was observed | Mean time on rotarod (motor function) ([5]; ovariectomized wild type C57BL/6 with EAE, after day 30): significant recovery of motor function | PPT 3.3 mg/kg/day mediated increase in uterine weight ([6]; DPN 8 mg/kg/day in combination with PPT, 10 days): antagonized | Uterine weight ([6]; DPN alone 8 mg/kg/day s.c. for 10 days, ovariectomized C57BL/6): no effect on uterine weight | Clinical scores (EAE 0-5 scale) ([7]; DPN 8 mg/kg/day s.c., ovariectomized C57BL/6, early in disease (up to day 20 after induction)): not significantly different | Clinical scores (EAE 0-5 scale) ([7]; DPN 8 mg/kg/day s.c., ovariectomized C57BL/6, later during EAE (following day 30 after induction)): significantly improved | Clinical scores (EAE 0-5 scale) ([7]; DPN, ovariectomized ERβ KO C57BL/6 mice): no different

CCCc1c(-c2ccc(O)cc2)nn(-c2ccc(O)cc2)c1-c1ccc(O)cc1 [PPT, propyl pyrazole triol]
Decrease of Mac 3+ cells in gray matter compared with vehicle-treated EAE mice [8]: ~65%

glatiramer acetate copolymer-1 [Copaxone]
Time to post-partum relapse ([9]; Copaxone alone, after delivery of second child): 4.5 months | Time to post-partum relapse ([9]; Copaxone only, after delivery of first child): 6 weeks

C[C@]12CC[C@@H]3c4ccc(O)cc4CC[C@H]3[C@@H]1CC[C@@H]2O [estradiol, 17β-estradiol]
Decrease of Mac 3+ cells in gray matter compared with vehicle-treated EAE mice [8]: ~65%
